From ChEMBL document CHEMBL5528027, “Target identification, and optimization of dioxygenated amide derivatives as potent antibacterial agents with FabH inhibitory activity” (Eur J Med Chem, 2024)
≈ marks a conversion by molar mass, not a printed value.

How the values were obtained:
Escherichia coli = test: Antibacterial activity against Escherichia coli assessed as reduction in bacterial growth measured after 24 hrs by two-fold serial dilution method; format: functional
Pseudomonas aeruginosa = test: Antibacterial activity against Pseudomonas aeruginosa assessed as reduction in bacterial growth measured after 24 hrs by two-fold serial dilution method; format: functional
Bacillus subtilis = test: Antibacterial activity against Bacillus subtilis assessed as reduction in bacterial growth measured after 24 hrs by two-fold serial dilution method; format: functional
Staphylococcus aureus = test: Antibacterial activity against Staphylococcus aureus assessed as reduction in bacterial growth measured after 24 hrs by two-fold serial dilution method; format: functional
Klebsiella pneumoniae = test: Antibacterial activity against Klebsiella pneumoniae assessed as reduction in bacterial growth measured after 24 hrs by two-fold serial dilution method; format: functional
Streptococcus pneumoniae = test: Antibacterial activity against Streptococcus pneumoniae assessed as reduction in bacterial growth measured after 24 hrs by two-fold serial dilution method; format: functional
[1] = target: T1, Beta-ketoacyl-[acyl-carrier-protein] synthase III (Escherichia coli K-12, UniProt P0A6R0); test: Inhibition of Escherichia coli FabH
T1 sequence (P0A6R0 whole entry): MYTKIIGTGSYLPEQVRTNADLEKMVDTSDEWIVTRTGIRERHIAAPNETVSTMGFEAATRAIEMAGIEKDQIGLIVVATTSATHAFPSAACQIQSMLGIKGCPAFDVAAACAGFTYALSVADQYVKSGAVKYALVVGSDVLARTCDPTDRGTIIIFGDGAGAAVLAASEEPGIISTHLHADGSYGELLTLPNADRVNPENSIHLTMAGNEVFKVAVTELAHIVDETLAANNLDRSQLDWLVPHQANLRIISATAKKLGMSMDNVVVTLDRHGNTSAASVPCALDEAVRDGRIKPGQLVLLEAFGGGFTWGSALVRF

Erythrocyte = test: Hemolytic activity in human erythrocytes assessed as hemolysis by spectrophotometric analysis; format: toxicity, cell-based
[2] = Cytotoxicity against mouse NIH3T3 cells incubated for 24 hrs by MTT analysis; format: toxicity, cell-based

| MIC (Escherichia coli) [µg/mL] | MIC (Pseudomonas aeruginosa) [µg/mL] | MIC (Bacillus subtilis) [µg/mL] | MIC (Staphylococcus aureus) [µg/mL] | MIC (Klebsiella pneumoniae) [µg/mL] | MIC (Streptococcus pneumoniae) [µg/mL] | IC50 [1] [µM] | Compound | HC30 (Erythrocyte) [µg/mL] | IC50 at 24 h [2] [µM] |
| --- | --- | --- | --- | --- | --- | --- | --- | --- | --- |
| 12.5 (≈ 39.3 µM) | 3.13 (≈ 9.83 µM) | 25 (≈ 78.5 µM) | 3.13 (≈ 9.83 µM) | 3.13 (≈ 9.83 µM) | 25 (≈ 78.5 µM) | 17.5 | CC(=O)N1CCC(NC(=O)c2ccc3c(c2)OCCCO3)CC1 | > 10 | 132 |
| 3.13 (≈ 10.2 µM) | 6.25 (≈ 20.3 µM) | 12.5 (≈ 40.5 µM) | 6.25 (≈ 20.3 µM) | 3.13 (≈ 10.2 µM) | 12.5 (≈ 40.5 µM) | 13.1 | O=C(Nc1ccc2cc[nH]c2c1)c1ccc2c(c1)OCCCO2 | > 10 | 198 |
| 6.25 (≈ 22.7 µM) | 6.25 (≈ 22.7 µM) | 12.5 (≈ 45.4 µM) | 6.25 (≈ 22.7 µM) | – | – | – | CC1(CCNC(=O)c2ccc3c(c2)OCCCO3)N=N1 | – | – |
| 12.5 (≈ 37.4 µM) | 12.5 (≈ 37.4 µM) | 25 (≈ 74.8 µM) | 12.5 (≈ 37.4 µM) | 50 (≈ 150 µM) | 25 (≈ 74.8 µM) | – | Cc1ccc2cccc(NC(=O)c3ccc4c(c3)OCCCO4)c2n1 | – | – |
| 50 (≈ 156 µM) | 50 (≈ 156 µM) | > 100 | 50 (≈ 156 µM) | 25 (≈ 78 µM) | > 100 | – | O=C(Nc1nccc2ccccc12)c1ccc2c(c1)OCCCO2 | – | – |
| 1.56 (≈ 4.4 µM) | 1.56 (≈ 4.4 µM) | 12.5 (≈ 35.2 µM) | 3.13 (≈ 8.82 µM) | 3.13 (≈ 8.82 µM) | 12.5 (≈ 35.2 µM) | 4.9 | O=C(Nc1cc(Cl)cc2cccnc12)c1ccc2c(c1)OCCCO2 | > 10 | 115 |
| 25 (≈ 87.9 µM) | 50 (≈ 176 µM) | > 100 | 50 (≈ 176 µM) | > 100 | > 100 | – | Cc1ccc(NC(=O)c2ccc3c(c2)OCCCO3)cn1 | – | – |
| 6.25 (≈ 20 µM) | > 100 | 50 (≈ 160 µM) | 50 (≈ 160 µM) | 25 (≈ 80 µM) | > 100 | 46.4 | CC(=O)c1cccnc1NC(=O)c1ccc2c(c1)OCCCO2 | > 10 | 128 |
| 12.5 (≈ 43.2 µM) | 25 (≈ 86.4 µM) | 25 (≈ 86.4 µM) | 25 (≈ 86.4 µM) | – | – | – | CC1(CCCNC(=O)c2ccc3c(c2)OCCCO3)N=N1 | – | – |
| 12.5 (≈ 31 µM) | 50 (≈ 124 µM) | 50 (≈ 124 µM) | 50 (≈ 124 µM) | 50 (≈ 124 µM) | > 100 | 19.6 | COC(=O)c1cccc(-c2ccc(NC(=O)c3ccc4c(c3)OCCCO4)cc2)c1 | > 10 | 161 |
| 25 (≈ 81.8 µM) | 25 (≈ 81.8 µM) | 25 (≈ 81.8 µM) | 25 (≈ 81.8 µM) | 25 (≈ 81.8 µM) | 50 (≈ 164 µM) | – | O=C(Nc1cncc(Cl)n1)c1ccc2c(c1)OCCCO2 | – | – |

Further lines, the compound ahead of its results:

| Compound | MIC (Escherichia coli) [µg/mL] | MIC (Pseudomonas aeruginosa) [µg/mL] | MIC (Bacillus subtilis) [µg/mL] | MIC (Staphylococcus aureus) [µg/mL] | MIC (Klebsiella pneumoniae) [µg/mL] | MIC (Streptococcus pneumoniae) [µg/mL] | IC50 [1] [µM] | HC30 (Erythrocyte) [µg/mL] | IC50 at 24 h [2] [µM] |
| --- | --- | --- | --- | --- | --- | --- | --- | --- | --- |
| O=C(Nc1ccccn1)c1ccc2c(c1)OCCCO2 | 12.5 (≈ 46.2 µM) | 50 (≈ 185 µM) | 25 (≈ 92.5 µM) | 50 (≈ 185 µM) | 50 (≈ 185 µM) | > 100 | – | – | – |
| NC[C@H]1O[C@H](O[C@H]2[C@H](O)[C@@H](O[C@H]3O[C@H](CO)[C@@H](O)[C@H](N)[C@H]3O)[C@H](N)C[C@@H]2N)[C@H](N)[C@@H](O)[C@@H]1O [BEKANAMYCIN] | 3.13 (≈ 6.47 µM) | 3.13 (≈ 6.47 µM) | 1.56 (≈ 3.23 µM) | 1.56 (≈ 3.23 µM) | 3.13 (≈ 6.47 µM) | 50 (≈ 103 µM) | – | – | – |
| O=C(Nc1ccncn1)c1ccc2c(c1)OCCCO2 | 50 (≈ 184 µM) | 50 (≈ 184 µM) | > 100 | 50 (≈ 184 µM) | > 100 | 50 (≈ 184 µM) | – | – | – |
| O=C(Nc1ccc2ccccc2n1)c1ccc2c(c1)OCCCO2 | 25 (≈ 78 µM) | 25 (≈ 78 µM) | 25 (≈ 78 µM) | 25 (≈ 78 µM) | 50 (≈ 156 µM) | 25 (≈ 78 µM) | – | – | – |
| C#CCCC1(CCNC(=O)c2ccc3c(c2)OCCCO3)N=N1 | 6.25 (≈ 19.9 µM) | 6.25 (≈ 19.9 µM) | 6.25 (≈ 19.9 µM) | 6.25 (≈ 19.9 µM) | – | – | – | – | – |
| CCN1CCN(C(=O)c2ccc3c(c2)OCCCO3)CC1 | 25 (≈ 86.1 µM) | 50 (≈ 172 µM) | > 100 | 25 (≈ 86.1 µM) | 50 (≈ 172 µM) | 50 (≈ 172 µM) | – | – | – |
| COc1ccc(NC(=O)c2ccc3c(c2)OCCCO3)c2ncccc12 | > 100 | 50 (≈ 143 µM) | > 100 | > 100 | > 100 | 50 (≈ 143 µM) | – | – | – |
| O=C(c1ccc2c(c1)OCCCO2)N1CCCC1 | > 100 | 50 (≈ 202 µM) | > 100 | > 100 | > 100 | > 100 | – | – | – |
| O=C(c1ccc2c(c1)OCCCO2)N1CCCCC1 | 25 (≈ 95.7 µM) | 25 (≈ 95.7 µM) | 12.5 (≈ 47.8 µM) | 25 (≈ 95.7 µM) | 25 (≈ 95.7 µM) | 25 (≈ 95.7 µM) | – | – | – |
| O=C(Nc1cccc2ncccc12)c1ccc2c(c1)OCCCO2 | 50 (≈ 156 µM) | 25 (≈ 78 µM) | 50 (≈ 156 µM) | 50 (≈ 156 µM) | 25 (≈ 78 µM) | 25 (≈ 78 µM) | – | – | – |
| COc1ccc2[nH]cc(CNC(=O)c3ccc4c(c3)OCCCO4)c2c1 | 25 (≈ 70.9 µM) | 50 (≈ 142 µM) | 25 (≈ 70.9 µM) | 50 (≈ 142 µM) | 50 (≈ 142 µM) | > 100 | – | – | – |
| O=C(c1ccc2c(c1)OCCCO2)N1CCN(C(=O)c2ccc3c(c2)OCCCO3)CC1 | > 100 | > 100 | 50 (≈ 114 µM) | > 100 | > 100 | > 100 | – | – | – |
| COc1cc(NC(=O)c2ccc3c(c2)OCCCO3)c2ncccc2c1 | 50 (≈ 143 µM) | 50 (≈ 143 µM) | > 100 | 50 (≈ 143 µM) | 50 (≈ 143 µM) | > 100 | – | – | – |
| O=C(Nc1cccnc1)c1ccc2c(c1)OCCCO2 | 25 (≈ 92.5 µM) | 50 (≈ 185 µM) | > 100 | 50 (≈ 185 µM) | 25 (≈ 92.5 µM) | 50 (≈ 185 µM) | – | – | – |
| CN1CCN(C(=O)c2ccc3c(c2)OCCCO3)CC1 | 6.25 (≈ 22.6 µM) | 3.13 (≈ 11.3 µM) | 6.25 (≈ 22.6 µM) | 3.13 (≈ 11.3 µM) | 6.25 (≈ 22.6 µM) | 12.5 (≈ 45.2 µM) | 38.2 | > 10 | 175 |
| O=C(c1ccc2c(c1)OCCCO2)N1CCN(CCO)CC1 | 50 (≈ 163 µM) | 25 (≈ 81.6 µM) | > 100 | 25 (≈ 81.6 µM) | > 100 | 25 (≈ 81.6 µM) | – | – | – |
| O=C(c1ccc2c(c1)OCCCO2)N1CCOCC1 | 25 (≈ 95 µM) | 25 (≈ 95 µM) | 25 (≈ 95 µM) | 12.5 (≈ 47.5 µM) | 12.5 (≈ 47.5 µM) | 50 (≈ 190 µM) | – | – | – |
| O=C(c1ccc2c(c1)OCCCO2)N1CCN(Cc2ccccc2)CC1 | 50 (≈ 142 µM) | 50 (≈ 142 µM) | > 100 | 50 (≈ 142 µM) | 25 (≈ 70.9 µM) | 25 (≈ 70.9 µM) | – | – | – |
| CCOC(=O)c1cccnc1NC(=O)c1ccc2c(c1)OCCCO2 | 6.25 (≈ 18.3 µM) | 12.5 (≈ 36.5 µM) | 25 (≈ 73 µM) | 25 (≈ 73 µM) | 25 (≈ 73 µM) | 25 (≈ 73 µM) | 26.8 | > 10 | 147 |
| O=C(Nc1ccc(C(F)(F)F)cn1)c1ccc2c(c1)OCCCO2 | 3.13 (≈ 9.25 µM) | 6.25 (≈ 18.5 µM) | > 100 | 50 (≈ 148 µM) | 6.25 (≈ 18.5 µM) | 25 (≈ 73.9 µM) | 8.6 | > 10 | 204 |
| CCOC(=O)c1c(NC(=O)c2ccc3c(c2)OCCCO3)sc2c1CCCC2 | > 100 | 50 (≈ 125 µM) | 50 (≈ 125 µM) | > 100 | 50 (≈ 125 µM) | 50 (≈ 125 µM) | – | – | – |
| O=C(NCCc1nc2ccccc2[nH]1)c1ccc2c(c1)OCCCO2 | 25 (≈ 74.1 µM) | 50 (≈ 148 µM) | 25 (≈ 74.1 µM) | > 100 | > 100 | 50 (≈ 148 µM) | – | – | – |
| O=C(Nc1cccc2cccnc12)c1ccc2c(c1)OCCCO2 | 12.5 (≈ 39 µM) | 25 (≈ 78 µM) | 12.5 (≈ 39 µM) | 25 (≈ 78 µM) | 50 (≈ 156 µM) | 25 (≈ 78 µM) | – | – | – |
| O=C(Nc1ccnc2ccccc12)c1ccc2c(c1)OCCCO2 | 50 (≈ 156 µM) | 50 (≈ 156 µM) | 50 (≈ 156 µM) | 25 (≈ 78 µM) | 50 (≈ 156 µM) | 50 (≈ 156 µM) | – | – | – |
